Legend:
Format in all cases: cell-based
Listeria monocytogenes = assay: MIC/MLC in brain heart infusion broth; also: key: + = growth (inactive); − = no growth (active)
Procedure: (§1) The tests were carried out in 10 ml of brain heart infusion broth. The esters were serially diluted in brain heart infusion broth of samples of, 0.1, 0.2, 0.3, 0.4 and 0.5/10 ml and challenged with 0.1 ml of 1/100 dilution of 24 hr old brain heart infusion bacterial culture. The lowest concentration determined the minimum inhibitory concentration (MIC). The samples were observed after 48 hrs at 37° C. A loopful from tubes without growth were plated on BHI agar plates and observed for growth for 24 to 48 hrs at 37° C. The samples with the lowest concentration of the ester without bacterial growth on the plates represented the minimum lethal concentration (MLC).
(§2) A series of samples of (a) methyl lactate, (b) ethyl lactate and (c) butyl lactate, alone, and in admixture with varying amounts of decyl lactate and sodium dodecyl sulfates were used to test minimum inhibitory activity (MIC) by the method described in Example II, against the cultures of E. coli 0157 H7, Listeria monocytogenes, Staphylococcus aureus, Salmonella typhi, and Pseudomonas aeruginosa.

Pseudomonas aeruginosa = assay: MIC/MLC in brain heart infusion broth; conditions: for MIC, Concentration of Lactic Esters 0.5%: 0.5% ester; for MIC, Concentration of Lactic Esters 1%: 1% ester; for MIC, Concentration of Lactic Esters 2%: 2% ester; for MIC, Concentration of Lactic Esters 3%: 3% ester; for MIC, Concentration of Lactic Esters 4%: 4% ester; for MIC, Concentration of Lactic Esters 5%: 5% ester; as to all read-outs here: key: + = growth (inactive); − = no growth (active)
Procedure: as §1, §2

Saccharomyces cerevisiae = assay: MIC and MLC against yeast in Sab. broth; conditions: for Lethal (MLC) Concentration 1% / Inhibitory (MIC) Concentration 1%: 1% ester; for Lethal (MLC) Concentration 1.5% / Inhibitory (MIC) Concentration 1.5%: 1.5% ester; for Lethal (MLC) Concentration 2% / Inhibitory (MIC) Concentration 2%: 2% ester; for Lethal (MLC) Concentration 3% / Inhibitory (MIC) Concentration 3%: 3% ester; for Lethal (MLC) Concentration 4% / Inhibitory (MIC) Concentration 4%: 4% ester; as to Lethal (MLC) Concentration 1%: key: + = growth (inactive); − = no growth (active); as to Lethal (MLC) Concentration 1.5%: key: + = growth (inactive); − = no growth (active); as to Lethal (MLC) Concentration 2%: key: + = growth (inactive); − = no growth (active); as to Lethal (MLC) Concentration 3%: key: + = growth (inactive); − = no growth (active); as to Lethal (MLC) Concentration 4%: key: + = growth (inactive); − = no growth (active)
Procedure: A 0.1 ml of 1/100 dilution of 48 hr old culture of S. cerevisiae was used as inoculum. The test was performed using Sab. broth. The tubes were incubated at room temperature 25° C. The test was read after 48 hrs.

## CCCCOC(=O)C(C)O (stereo not shown) [Butyl lactate, butyl lactate]
Listeria monocytogenes; 0.5%
  MLC, Concentration of Butyl lactate 0.5%: +
Listeria monocytogenes; 1%
  MLC, Concentration of Butyl lactate 1%: +
Listeria monocytogenes; 2%
  MLC, Concentration of Butyl lactate 2%: −
Listeria monocytogenes; 3%
  MLC, Concentration of Butyl lactate 3%: −
Listeria monocytogenes; 4%
  MLC, Concentration of Butyl lactate 4%: −
Listeria monocytogenes; 5%
  MLC, Concentration of Butyl lactate 5%: −
Pseudomonas aeruginosa; 0.5%
  MLC, Concentration of Butyl lactate 0.5%: +
Pseudomonas aeruginosa; SDS 0.0 ppm
  MIC, Concentration of Lactic Esters 0.5%: +
  MIC, Concentration of Lactic Esters 1%: +
  MIC, Concentration of Lactic Esters 2%: −
  MIC, Concentration of Lactic Esters 3%: −
  MIC, Concentration of Lactic Esters 4%: −
  MIC, Concentration of Lactic Esters 5%: −
Pseudomonas aeruginosa; SDS 50 ppm
  MIC, Concentration of Lactic Esters 0.5%: −
  MIC, Concentration of Lactic Esters 1%: −
  MIC, Concentration of Lactic Esters 2%: −
  MIC, Concentration of Lactic Esters 3%: −
  MIC, Concentration of Lactic Esters 4%: −
  MIC, Concentration of Lactic Esters 5%: −
Pseudomonas aeruginosa; SDS 100 ppm
  MIC, Concentration of Lactic Esters 0.5%: −
  MIC, Concentration of Lactic Esters 1%: −
  MIC, Concentration of Lactic Esters 2%: −
  MIC, Concentration of Lactic Esters 3%: −
  MIC, Concentration of Lactic Esters 4%: −
  MIC, Concentration of Lactic Esters 5%: −
Pseudomonas aeruginosa; SDS 200 ppm
  MIC, Concentration of Lactic Esters 0.5%: −
  MIC, Concentration of Lactic Esters 1%: −
  MIC, Concentration of Lactic Esters 2%: −
  MIC, Concentration of Lactic Esters 3%: −
  MIC, Concentration of Lactic Esters 4%: −
  MIC, Concentration of Lactic Esters 5%: −
Pseudomonas aeruginosa; 1%
  MLC, Concentration of Butyl lactate 1%: +
Pseudomonas aeruginosa; 2%
  MLC, Concentration of Butyl lactate 2%: +
Pseudomonas aeruginosa; 3%
  MLC, Concentration of Butyl lactate 3%: −
Pseudomonas aeruginosa; 4%
  MLC, Concentration of Butyl lactate 4%: −
Pseudomonas aeruginosa; 5%
  MLC, Concentration of Butyl lactate 5%: −
Saccharomyces cerevisiae
  Lethal (MLC) Concentration 1%: −
  Lethal (MLC) Concentration 1.5%: −
  Lethal (MLC) Concentration 2%: −
  Lethal (MLC) Concentration 3%: −
  Lethal (MLC) Concentration 4%: −
Saccharomyces cerevisiae; 48 hrs, 25° C
  Inhibitory (MIC) Concentration 1%: −
  Inhibitory (MIC) Concentration 1.5%: −
  Inhibitory (MIC) Concentration 2%: −
  Inhibitory (MIC) Concentration 3%: −
  Inhibitory (MIC) Concentration 4%: −
Saccharomyces cerevisiae; Sodium lauryl sulfate 200 ppm
  Inhibitory (MIC) Concentration 1%: −
  Lethal (MLC) Concentration 1%: −
  Inhibitory (MIC) Concentration 1.5%: −
  Lethal (MLC) Concentration 1.5%: −
  Inhibitory (MIC) Concentration 2%: −
  Lethal (MLC) Concentration 2%: −
  Inhibitory (MIC) Concentration 3%: −
  Lethal (MLC) Concentration 3%: −
  Inhibitory (MIC) Concentration 4%: −
  Lethal (MLC) Concentration 4%: −

## COC(=O)C(C)O (stereo not shown) [Methyl lactate, methyl lactate]
Pseudomonas aeruginosa; SDS 0.0 ppm
  MIC, Concentration of Lactic Esters 0.5%: +
  MIC, Concentration of Lactic Esters 1%: +
  MIC, Concentration of Lactic Esters 2%: −
  MIC, Concentration of Lactic Esters 3%: −
  MIC, Concentration of Lactic Esters 4%: −
  MIC, Concentration of Lactic Esters 5%: −
Pseudomonas aeruginosa; SDS 50 ppm
  MIC, Concentration of Lactic Esters 0.5%: −
  MIC, Concentration of Lactic Esters 1%: −
  MIC, Concentration of Lactic Esters 2%: −
  MIC, Concentration of Lactic Esters 3%: −
  MIC, Concentration of Lactic Esters 4%: −
  MIC, Concentration of Lactic Esters 5%: −
Pseudomonas aeruginosa; SDS 100 ppm
  MIC, Concentration of Lactic Esters 0.5%: −
  MIC, Concentration of Lactic Esters 1%: −
  MIC, Concentration of Lactic Esters 2%: −
  MIC, Concentration of Lactic Esters 3%: −
  MIC, Concentration of Lactic Esters 4%: −
  MIC, Concentration of Lactic Esters 5%: −
Pseudomonas aeruginosa; SDS 200 ppm
  MIC, Concentration of Lactic Esters 0.5%: −
  MIC, Concentration of Lactic Esters 1%: −
  MIC, Concentration of Lactic Esters 2%: −
  MIC, Concentration of Lactic Esters 3%: −
  MIC, Concentration of Lactic Esters 4%: −
  MIC, Concentration of Lactic Esters 5%: −
Saccharomyces cerevisiae
  Lethal (MLC) Concentration 1%: +
  Lethal (MLC) Concentration 1.5%: +
  Lethal (MLC) Concentration 2%: +
  Lethal (MLC) Concentration 3%: −
  Lethal (MLC) Concentration 4%: −
Saccharomyces cerevisiae; 48 hrs, 25° C
  Inhibitory (MIC) Concentration 1%: +
  Inhibitory (MIC) Concentration 1.5%: +
  Inhibitory (MIC) Concentration 2%: +
  Inhibitory (MIC) Concentration 3%: −
  Inhibitory (MIC) Concentration 4%: −
Saccharomyces cerevisiae; Sodium lauryl sulfate 200 ppm
  Inhibitory (MIC) Concentration 1%: +
  Lethal (MLC) Concentration 1%: +
  Inhibitory (MIC) Concentration 1.5%: +
  Lethal (MLC) Concentration 1.5%: +
  Inhibitory (MIC) Concentration 2%: +
  Lethal (MLC) Concentration 2%: +
  Inhibitory (MIC) Concentration 3%: −
  Lethal (MLC) Concentration 3%: −
  Inhibitory (MIC) Concentration 4%: −
  Lethal (MLC) Concentration 4%: −

From patent US9040067B2, “Disinfecting and antimicrobial compositions” (priority 2005, dated 2015)
